Experimental data as given in PMC11868331, “A Phase 1b study of the OxPhos inhibitor ME-344 with bevacizumab in refractory metastatic colorectal cancer” (Investigational New Drugs, 2024).

How the values were obtained:
[1] = test system: PyMT breast cancer and Lewis lung carcinoma models; design: method as in PMID 27292634; settings: in combination with TKIs; cited from earlier work
[2] = test system: solid tumors; design: method as in PMID 25411085; settings: cited from earlier work
[3] = test system: early HER2-negative breast cancer; design: method as in PMID 31597662; settings: mitochondrial on-target effect; cited from earlier work
[4] = test system: panel of human cancer cells; settings: cells representative of most major organ systems; preclinical screening studies; cited from earlier work
[5] = test system: patients with ovarian and small cell lung cancer; design: method as in PMID 28283779; settings: ME-344 at 10 mg/kg in combination with topotecan; cited from earlier work
[6] = ME-344 plasma pharmacokinetics, non-compartmental analysis; type: in vivo, human; settings: for Cmax, Mean (%CV): ME-344 10 mg/kg 60-minute infusion
Method: Serial blood samples for ME-344 pharmacokinetic analyses were collected 5 min after the end of ME-344 infusion and at 1, 2, 3, 6 and 24 h after the completion of infusion on days 1 and 15 of cycle 1, and ME-344 plasma concentrations were determined using validated analytical methods. ME-344 pharmacokinetic parameters were estimated using actual sampling times by non-compartmental analysis.

AUCinf, Mean (%CV) ([6]; Cycle 1 Day 1 (n = 17)): 23.0 (34%) µg×h/mL
AUClast, Mean (%CV) ([6]; Cycle 1 Day 1 (n = 17)): 22.6 (34%) µg×h/mL
Tmax, median (range) ([6]; Cycle 1 Day 1 (n = 17)): 1.08 [1.03 – 1.33] hours
Cmax, Mean (%CV) ([6]; Cycle 1 Day 1 (n = 17)): 12.60 (42%) µg/mL
AUCinf, Mean (%CV) ([6]; Cycle 1 Day 15 (n = 15)): 23.7 (38%) ^A µg×h/mL
AUClast, Mean (%CV) ([6]; Cycle 1 Day 15 (n = 15)): 22.4 (35%) ^A µg×h/mL
Half-life (terminal phase t1/2), Mean (%CV) ([6]; Cycle 1 Day 15 (n = 15)): 5.1 (38%) ^A h
Tmax, median (range) ([6]; Cycle 1 Day 15 (n = 18)): 1.17 [1.03 – 2.23] hours
Cmax, Mean (%CV) ([6]; Cycle 1 Day 15 (n = 18)): 11.83 (47%) µg/mL
pre-dose plasma concentrations ([6]; day 15): negligible
Compound: Cc1c(O)ccc2c1OC[C@@H](c1ccc(O)cc1)[C@H]2c1ccc(O)cc1 [ME-344]
tumor control [1]: synergistic tumor control
dose limiting toxicity ([2]; at higher doses than 10 mg/kg): peripheral neuropathy
recommended phase 2 dose ([2]; intravenously (IV) once weekly for 3 weeks in a 28-day cycle): 10 mg/kg
succinate dehydrogenase and HIF1α staining [3]: decrease
antiproliferative activity [4]: broad antiproliferative activity
tolerability [5]: well tolerated
